According to ChEMBL document CHEMBL1156691, “Structure of a novel thrombin inhibitor with an uncharged D-amino acid as P1 residue” (Eur J Med Chem, 2008):

What was measured:
Prothrombin [1] = molecular target: T1, Prothrombin (Homo sapiens, UniProt P00734); assay: Binding affinity to thrombin
Prothrombin [2] = molecular target: T1, Prothrombin; assay: Inhibition of human thrombin

Structure (SMILES) | Kd (Prothrombin [1]) | Ki (Prothrombin [2])
NCCc1c[nH]c2cc(F)ccc12 | 6.9 mM | –
N=C(N)NCCCC[C@@H](NC(=O)[C@@H](Cc1ccc(O)cc1)NC(=O)[C@@H]1CCN1C(=O)[C@H](CC1CCCCC1)NC(=O)[C@H]1CC[C@H](CNC(=N)N)CC1)C(N)=O | – | 3 nM
